# Laboratory results reported in PMC11790914, “Chemogenomics for steroid hormone receptors (NR3)” (Communications Chemistry, 2025).
# Entries after “also recorded” stand apart in the source; their conditions may differ.
# Columns and labels:
# NR1I3 (CAR) = biological target: T1, NR1I3 (CAR) (Homo sapiens, UniProt Q14994); experiment: Gal4 hybrid reporter gene assay CAR; type: cell-based; conditions: n=3
# T1 construct: expressed in transfected cells; host or cells: HEK293T
# T1 sequence (Q14994 109-352 limits assumed): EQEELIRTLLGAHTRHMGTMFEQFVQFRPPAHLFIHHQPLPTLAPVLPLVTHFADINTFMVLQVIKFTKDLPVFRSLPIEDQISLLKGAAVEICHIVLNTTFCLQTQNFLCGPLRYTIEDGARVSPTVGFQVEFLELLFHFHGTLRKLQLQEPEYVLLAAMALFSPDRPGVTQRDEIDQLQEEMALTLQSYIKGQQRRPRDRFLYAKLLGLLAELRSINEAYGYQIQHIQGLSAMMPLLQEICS
# Experimental: (§1) Reference ligands are listed in the methods section.
# (§2) HEK293T cells (ATCC, Manassas, Virgina, USA; #CRL-3216) were cultured to a maximal confluence of 70–80% in DMEM, high glucose, supplemented with 10% FCS, sodium pyruvate (1 mM), penicillin (100 U/mL), and streptomycin (100 μg/mL) at 37 °C and 5% CO2 (v/v), and seeded in clear 96-well plates (4 × 10^4 cells per well). After 20–24 h, medium was changed to Opti-MEM without supplements and the cells were transiently transfected using Lipofectamine™ LTX/Plus™ Reagents (Invitrogen, Carlsbad, California, USA; #15338100) according to the manufacturer’s protocol with pFR-Luc (reporter gene; Stratagene, Agilent Technologies, Santa Clara, California, USA; #219050), pRL-SV40 (control gene for normalization of transfection efficiency and cell growth; Promega, Fitchburg, Wisconsin, USA; #E2231) and one pFA-CMV-hNR-LBD clone coding for the hinge region and ligand binding domain (LBD) of the human NR of interest. Five hours after transfection, the cells were incubated with the NR3 CG compound candidates at the recommended concentrations by changing the medium to Opti-MEM supplemented with penicillin (100 µ/mL) and streptomycin (100 µg/mL) additionally containing 0.1% DMSO and the respective test compound or 0.1% DMSO alone as untreated control. Firefly (reporter) and renilla (control) luminescence were measured after 14–16 h incubation using the Dual-Glo® Luciferase Assay System (Promega, Fitchburg, Wisconsin, USA; #E2980) according to manufacturer’s protocol on a Tecan Spark® 10M multimode microplate reader (Tecan Group AG, Männedorf, Switzerland). To obtain relative light units (RLU) firefly luminescence was divided by renilla luminescence and multiplied by 1000. Fold activation was obtained by dividing the mean RLU of a test sample by the mean RLU of the DMSO (0.1%) control. Experiments were performed in singlets in at least three biologically independent repeats. […]
# [1] = test system: NF-κB activity in HEK293 NF-κB reporter cells; experiment: NF-kB activity assay (GFP reporter, ionomycin/PMA); type: cell-based; conditions: for Mean NFκB response: n=3
# How it was run: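 Reporter readout: GFP-expressing cells normalized to confluence, imaged every 90 min across 24 h after ionomycin (100 ng/mL)/PMA (10 ng/mL) stimulation of HEK293 cells pre-treated 4 h with compound (0.1% DMSO); triplicate independent experiments.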
# NR3A1 (ERα) = conditions: read-out: Potency [nM] IC50, NR3A1 (ERα); cited from earlier work
# [2] = cited from earlier work; for Reason for exclusion: number of annotated off-targets: other targets with annotated bioactivities at ≤10 µM in previously published dataset
# NR1H3 (LXRα) = biological target: T2, NR1H3 (LXRα) (Homo sapiens, UniProt Q13133); experiment: Gal4 hybrid reporter gene assay LXRα; type: cell-based; conditions: n=3
# T2 construct: expressed in transfected cells; host or cells: HEK293T
# T2 sequence (Q13133 209-447 limits assumed): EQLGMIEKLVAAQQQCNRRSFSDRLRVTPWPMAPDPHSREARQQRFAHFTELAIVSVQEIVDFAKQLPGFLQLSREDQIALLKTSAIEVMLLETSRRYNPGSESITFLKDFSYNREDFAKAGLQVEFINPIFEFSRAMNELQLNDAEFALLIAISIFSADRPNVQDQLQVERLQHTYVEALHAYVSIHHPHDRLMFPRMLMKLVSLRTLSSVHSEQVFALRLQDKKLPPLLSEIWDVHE
# Experimental: as §1, §2
smiles,measurement,setting,value
CC/C(=C(\c1ccc(O)cc1)c1ccc(OCCN(C)C)cc1)c1ccccc1 [(Z)-4-Hydroxytamoxifen],Activity on NR targets outside NR3 family [mean log10(fold reporter gene activity)] NR1I3 (CAR),"NR1I3 (CAR); 3 µM, vs. DMSO ctrl",1.13 log10(fold reporter gene activity)
same,Mean NFκB response,"[1]; 0.3 µM, 1,5 h",2504.77 GFP+-cells/confluence ∙ 1000
same,Mean NFκB response,"[1]; 0.3 µM, 4,5 h",3089.76 GFP+-cells/confluence ∙ 1000
same,Mean NFκB response,"[1]; 0.3 µM, 7,5 h",8223.00 GFP+-cells/confluence ∙ 1000
same,Mean NFκB response,"[1]; 0.3 µM, 10,5 h",20009.52 GFP+-cells/confluence ∙ 1000
same,Mean NFκB response,"[1]; 0.3 µM, 13,5 h",28937.88 GFP+-cells/confluence ∙ 1000
same,Mean NFκB response,"[1]; 0.3 µM, 16,6 h",35283.33 GFP+-cells/confluence ∙ 1000
same,Mean NFκB response,"[1]; 0.3 µM, 19,5 h",40116.67 GFP+-cells/confluence ∙ 1000
same,Mean NFκB response,"[1]; 0.3 µM, 22,5 h",43200.00 GFP+-cells/confluence ∙ 1000
same,Mean NFκB response,"[1]; 0.3 µM, 3 h",2555.89 GFP+-cells/confluence ∙ 1000
same,Mean NFκB response,"[1]; 0.3 µM, 6 h",4572.00 GFP+-cells/confluence ∙ 1000
same,Mean NFκB response,"[1]; 0.3 µM, 9 h",14658.14 GFP+-cells/confluence ∙ 1000
same,Mean NFκB response,"[1]; 0.3 µM, 12 h",24637.27 GFP+-cells/confluence ∙ 1000
same,Mean NFκB response,"[1]; 0.3 µM, 15 h",32269.00 GFP+-cells/confluence ∙ 1000
same,Mean NFκB response,"[1]; 0.3 µM, 18 h",37590.00 GFP+-cells/confluence ∙ 1000
same,Mean NFκB response,"[1]; 0.3 µM, 21 h",41653.33 GFP+-cells/confluence ∙ 1000
same,Mean NFκB response,"[1]; 0.3 µM, 24 h",44413.33 GFP+-cells/confluence ∙ 1000
same,Mean NFκB response,"[1]; 3 µM, 1,5 h",2613.90 GFP+-cells/confluence ∙ 1000
same,Mean NFκB response,"[1]; 3 µM, 4,5 h",3334.14 GFP+-cells/confluence ∙ 1000
same,Mean NFκB response,"[1]; 3 µM, 7,5 h",7514.38 GFP+-cells/confluence ∙ 1000
same,Mean NFκB response,"[1]; 3 µM, 10,5 h",19242.21 GFP+-cells/confluence ∙ 1000
same,Mean NFκB response,"[1]; 3 µM, 13,5 h",28764.40 GFP+-cells/confluence ∙ 1000
same,Mean NFκB response,"[1]; 3 µM, 16,6 h",35561.15 GFP+-cells/confluence ∙ 1000
same,Mean NFκB response,"[1]; 3 µM, 19,5 h",40217.80 GFP+-cells/confluence ∙ 1000
same,Mean NFκB response,"[1]; 3 µM, 22,5 h",43818.60 GFP+-cells/confluence ∙ 1000
same,Mean NFκB response,"[1]; 3 µM, 3 h",2770.52 GFP+-cells/confluence ∙ 1000
same,Mean NFκB response,"[1]; 3 µM, 6 h",4451.37 GFP+-cells/confluence ∙ 1000
same,Mean NFκB response,"[1]; 3 µM, 9 h",13511.36 GFP+-cells/confluence ∙ 1000
same,Mean NFκB response,"[1]; 3 µM, 12 h",24240.37 GFP+-cells/confluence ∙ 1000
same,Mean NFκB response,"[1]; 3 µM, 15 h",32735.51 GFP+-cells/confluence ∙ 1000
same,Mean NFκB response,"[1]; 3 µM, 18 h",38442.69 GFP+-cells/confluence ∙ 1000
same,Mean NFκB response,"[1]; 3 µM, 21 h",42295.79 GFP+-cells/confluence ∙ 1000
same,Mean NFκB response,"[1]; 3 µM, 24 h",44964.03 GFP+-cells/confluence ∙ 1000
same,IC50,NR3A1 (ERα),2 ± 1 nM
same,Other off-target at recom. conc.,"[2]; known off-target outside the NR family at the recommended concentration, ref Supplementary Table 1 (superscript references)",PLD1 and PLD2
COc1ccc(-c2coc3cc(O)cc(O)c3c2=O)cc1 [Biochanin A],Activity on NR1H3 (LXRα),NR1H3 (LXRα); 10 µM,-0.46 mean log10(fold reporter gene activity)
same,Activity on NR1I3 (CAR),NR1I3 (CAR); 10 µM,-0.24 mean log10(fold reporter gene activity)
same,Reason for exclusion: number of annotated off-targets,[2],> 5 off-targets
Cc1ccc2c(NC[C@](O)(CC(C)(C)c3cc(F)cc4c3OCC4)C(F)(F)F)cccc2n1 [Mapracorat],Activity on NR targets outside NR3 family [mean log10(fold reporter gene activity)] NR1H3 (LXRα),"NR1H3 (LXRα); 1 µM, vs. DMSO ctrl",-0.38 log10(fold reporter gene activity)
same,Mean NFκB response,"[1]; 1 µM, 1,5 h",2171.23 GFP+-cells/confluence ∙ 1000
same,Mean NFκB response,"[1]; 1 µM, 4,5 h",3001.35 GFP+-cells/confluence ∙ 1000
same,Mean NFκB response,"[1]; 1 µM, 7,5 h",6252.60 GFP+-cells/confluence ∙ 1000
same,Mean NFκB response,"[1]; 1 µM, 10,5 h",12057.95 GFP+-cells/confluence ∙ 1000
same,Mean NFκB response,"[1]; 1 µM, 13,5 h",15815.67 GFP+-cells/confluence ∙ 1000
same,Mean NFκB response,"[1]; 1 µM, 16,6 h",19330.00 GFP+-cells/confluence ∙ 1000
same,Mean NFκB response,"[1]; 1 µM, 19,5 h",21866.67 GFP+-cells/confluence ∙ 1000
same,Mean NFκB response,"[1]; 1 µM, 22,5 h",23846.67 GFP+-cells/confluence ∙ 1000
same,Mean NFκB response,"[1]; 1 µM, 3 h",2434.19 GFP+-cells/confluence ∙ 1000
same,Mean NFκB response,"[1]; 1 µM, 6 h",4081.73 GFP+-cells/confluence ∙ 1000
same,Mean NFκB response,"[1]; 1 µM, 9 h",9170.03 GFP+-cells/confluence ∙ 1000
same,Mean NFκB response,"[1]; 1 µM, 12 h",13883.00 GFP+-cells/confluence ∙ 1000
same,Mean NFκB response,"[1]; 1 µM, 15 h",17560.00 GFP+-cells/confluence ∙ 1000
same,Mean NFκB response,"[1]; 1 µM, 18 h",20616.67 GFP+-cells/confluence ∙ 1000
same,Mean NFκB response,"[1]; 1 µM, 21 h",23216.67 GFP+-cells/confluence ∙ 1000
same,Mean NFκB response,"[1]; 1 µM, 24 h",25073.33 GFP+-cells/confluence ∙ 1000
same,NF-κB activity (inflammatory response to ionomycin/PMA),"[1]; HEK293 NF-κB reporter cells, compounds at recommended concentrations, imaged over 24 h, n = 3",consistently delayed and strongly diminished NF-κB activity
C/C=C1\C(=O)C[C@H]2[C@@H]3CCC4=CC(=O)CC[C@]4(C)[C@H]3CC[C@]12C [Z-Guggulsterone],Activity on NR1H3 (LXRα),NR1H3 (LXRα); 3 µM,-0.71 mean log10(fold reporter gene activity)
same,Activity on NR1I3 (CAR),NR1I3 (CAR); 3 µM,-0.48 mean log10(fold reporter gene activity)
same,NR off-target at recom. conc.,"[2]; known NR off-target at the recommended concentration, ref Supplementary Table 1 (superscript references)",NR1H4; also recorded: NR1I2; also recorded: NR3A1; also recorded: NR3C1; also recorded: NR3C2
same,Reason for exclusion: number of annotated off-targets,[2],> 5 off-targets
